Ten compounds from PubChem BioAssay (NCI) can be followed below.

Test systems include HCC-2998 colon; HT29 colon; KM12 colon; M14 melanoma; NCI-H226 lung; NCI-H23 lung; OVCAR-5 ovarian; RPMI-8226 leukemia; TK-10 renal; U251 CNS.
Holding throughout (experiment): NCI tumour cell line growth inhibition, 48 h

The structures appear in SMILES notation.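 Five compound concentrations were applied to cells in 96-well plates for 48 hours; endpoints were derived by simple linear interpolation of the resulting dose-response curve. The concentration for 50% growth inhibition is given as GI50. Definition used: TGI = concentration required for complete inhibition of growth.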

In the case of `Cc1c(C#N)cccc1-c1cc(-c2cn(Cc3cccc(C(C)(C)O)n3)nn2)nc(N)n1`, the GI50 in the assay on HCC-2998 colon was 90.3 µM; with HT29 colon it was 28.2 µM; in the assay with KM12 colon, 47.4 µM; in the assay on M14 melanoma, 21.7 µM; in the assay on NCI-H226 lung, 22.7 µM; in the assay with NCI-H23 lung it was 26 µM. Further, the GI50 in the assay with OVCAR-5 ovarian is > 100 µM; in the assay on RPMI-8226 leukemia, 7.57 µM; with TK-10 renal it was 18.2 µM; with U251 CNS, 39.8 µM. The TGI in the assay with HCC-2998 colon is > 100 µM; in the assay on HT29 colon, > 100 µM; in the assay on KM12 colon, > 100 µM; in the assay on M14 melanoma, > 100 µM; in the assay with NCI-H226 lung, 91.9 µM; in the assay with NCI-H23 lung, > 100 µM. The TGI in the assay on OVCAR-5 ovarian was > 100 µM; in the assay with RPMI-8226 leukemia, 34.9 µM; in the assay on TK-10 renal, > 100 µM; with U251 CNS, > 100 µM.

Take `COP(=O)(OC)C(NC(c1ccccc1)c1ccccc1)c1ccc2c(c1)OCO2` (stereo not given): the GI50 is 33.5 µM with HCC-2998 colon; 19.9 µM with HT29 colon; 30 µM with KM12 colon; 23.1 µM in the assay with M14 melanoma; 30.7 µM with NCI-H226 lung; 31.5 µM with NCI-H23 lung. In addition, the GI50 with OVCAR-5 ovarian is 54.6 µM; with RPMI-8226 leukemia, 14.1 µM; in the assay on TK-10 renal it was 44.5 µM; in the assay on U251 CNS it was 30.8 µM. In addition, the TGI with HCC-2998 colon is > 100 µM; with HT29 colon it was 51.5 µM; with KM12 colon it was 81.3 µM; with M14 melanoma, 61.3 µM; with NCI-H226 lung it was 66.6 µM; in the assay with NCI-H23 lung it was 88.3 µM. For the same compound, the TGI in the assay on OVCAR-5 ovarian is > 100 µM; with RPMI-8226 leukemia it was 32.3 µM; in the assay on TK-10 renal, > 100 µM; in the assay with U251 CNS it was > 100 µM.

For `CCN(CC)c1ccc(/C=C\c2cc(C)c3cc(C)ccc3n2)cc1`, the GI50 in the assay on HCC-2998 colon was 4.44 µM; in the assay on HT29 colon, 2.65 µM; in the assay on KM12 colon, 3.39 µM; in the assay with M14 melanoma, 3.89 µM; in the assay with NCI-H226 lung, 7.29 µM; in the assay on NCI-H23 lung it was 5.37 µM. For the same compound, the GI50 is 17.7 µM in the assay on OVCAR-5 ovarian, 3.13 µM in the assay on RPMI-8226 leukemia, 5.11 µM in the assay with TK-10 renal and 5.35 µM in the assay on U251 CNS. For the same compound, the TGI in the assay with HCC-2998 colon was 23.8 µM; in the assay on HT29 colon, 11.4 µM; in the assay with KM12 colon it was 29.6 µM; in the assay on M14 melanoma, > 100 µM; with NCI-H226 lung, > 100 µM; in the assay on NCI-H23 lung, > 100 µM. In addition, the TGI in the assay on OVCAR-5 ovarian is > 100 µM; in the assay with RPMI-8226 leukemia, 8.7 µM; with TK-10 renal, 36.7 µM; in the assay with U251 CNS, > 100 µM.

Take `CN(C)CCCn1c2c(c3cnccc3c1=O)C(=O)c1ccccc1-2`: the GI50 in the assay on HCC-2998 colon was 0.777 µM; in the assay on HT29 colon it was 0.242 µM; in the assay with KM12 colon, 0.488 µM; in the assay with M14 melanoma, 0.391 µM; in the assay with NCI-H226 lung it was 0.388 µM; with NCI-H23 lung it was 0.55 µM. In addition, the GI50 with OVCAR-5 ovarian was 0.558 µM; with RPMI-8226 leukemia it was 0.337 µM; in the assay on TK-10 renal, 0.721 µM; in the assay on U251 CNS, 0.425 µM. For the same compound, the TGI worked out at 2.6 µM with HCC-2998 colon; 11.3 µM with HT29 colon; 9.58 µM with KM12 colon; 2.41 µM with M14 melanoma; 2.85 µM in the assay with NCI-H226 lung; 3.73 µM in the assay with NCI-H23 lung. The TGI in the assay with OVCAR-5 ovarian worked out at 9.04 µM; in the assay with RPMI-8226 leukemia, 1.65 µM; in the assay with TK-10 renal, 27.6 µM; in the assay on U251 CNS, 11.4 µM.

For `CCOC(=O)CC(=O)Sc1ccccc1`, the TGI in the assay on HCC-2998 colon was 96 µM; in the assay with HT29 colon, 48.7 µM; in the assay with KM12 colon, > 100 µM; in the assay on M14 melanoma, 31.7 µM; in the assay with NCI-H226 lung, 58.4 µM; with NCI-H23 lung it was 70.7 µM. The TGI with OVCAR-5 ovarian is > 100 µM; in the assay on RPMI-8226 leukemia, 51 µM; with TK-10 renal, > 100 µM; in the assay with U251 CNS, 40.2 µM.

`CCCC[C@H]1C(=O)O[C@H](C)[C@H](NC(=O)c2cccc(NC=O)c2O)C(=O)O[C@@H](C)[C@@H]1OC(=O)CC(C)C`: the TGI came out at 35.1 µM with HCC-2998 colon; 27.4 µM in the assay on HT29 colon; 30.8 µM in the assay with KM12 colon; 47.7 µM in the assay on M14 melanoma; 23.8 µM in the assay with NCI-H226 lung; 31.2 µM with NCI-H23 lung. For the same compound, the TGI in the assay on OVCAR-5 ovarian is 39 µM; in the assay on RPMI-8226 leukemia, 24.4 µM; in the assay with TK-10 renal, 50.6 µM; in the assay on U251 CNS it was 21.9 µM.

As to `Cc1ccccc1-c1c(N)nc(NC#N)nc1C(=O)Nc1ccccc1`, the TGI in the assay with HCC-2998 colon, with HT29 colon, with KM12 colon, in the assay with M14 melanoma, with NCI-H226 lung and in the assay on NCI-H23 lung was > 100 µM throughout. The TGI in the assay on OVCAR-5 ovarian, in the assay with RPMI-8226 leukemia, in the assay with TK-10 renal and in the assay on U251 CNS was > 100 µM each time.

Take `O=C(O)c1ccc2c(c1)Cc1cc([N+](=O)[O-])ccc1-2`: the TGI in the assay on HCC-2998 colon, in the assay with HT29 colon, in the assay on KM12 colon, with M14 melanoma, in the assay on NCI-H226 lung and with NCI-H23 lung was > 100 µM in each case. Besides, the TGI was > 100 µM with OVCAR-5 ovarian, 77.4 µM in the assay with RPMI-8226 leukemia, > 100 µM in the assay with TK-10 renal and > 100 µM in the assay on U251 CNS.

For the compound `COC(=O)C1=C(C)N(NC(N)=O)C2(N)N(NC(N)=O)C(C)=C(C(=O)OC)C12C(=O)OC` (stereo not given), the TGI in the assay on HCC-2998 colon is > 100 µM; with HT29 colon, > 100 µM; with KM12 colon, > 10 µM; in the assay with M14 melanoma, > 100 µM; in the assay with NCI-H226 lung it was > 100 µM; in the assay on NCI-H23 lung, > 100 µM. Also, the TGI in the assay with OVCAR-5 ovarian, in the assay on RPMI-8226 leukemia, in the assay with TK-10 renal and in the assay with U251 CNS was > 100 µM each time.

Take `COc1ccc(/C=N/N=C(\N)NO)cc1OC`: the TGI in the assay on HCC-2998 colon is > 100 µM; with HT29 colon, > 100 µM; in the assay on KM12 colon, > 100 µM; with M14 melanoma, 96.9 µM; in the assay with NCI-H226 lung, > 100 µM; in the assay with NCI-H23 lung it was > 100 µM. Besides, the TGI in the assay on OVCAR-5 ovarian, in the assay on RPMI-8226 leukemia, with TK-10 renal and in the assay on U251 CNS was > 100 µM throughout.
